Data on six compounds can be found in ChEMBL document CHEMBL3525936 (Drug Metab Dispos, 2012).

Data set [1] deals with Liver microsome. Nature of the data set: Drug level in rat liver microsomes assessed as compound formation treated with 2 uM [14C]brivanib alaninate after 60 mins by LC/MS method in presence of 1 mM NADPH. The format is ADME. Conditions: 1 h. A general note: Liver microsomes are vesicles of endoplasmic reticulum, rich in cytochrome P450 enzymes.
The nature of data set [2]: Drug level in monkey liver microsomes assessed as compound formation treated with 2 uM [14C]brivanib alaninate after 60 mins by LC/MS method in presence of 1 mM NADPH. The format is ADME, Macaca mulatta. Conditions: rhesus monkey, 1 h.
For data set [3], the system named is Liver microsome. Description: Drug level in human liver microsomes assessed as compound formation treated with 2 uM [14C]brivanib alaninate after 60 mins by LC/MS method in presence of 1 mM NADPH. The format is ADME. To be noted: 1 h.
The subject of data set [4] is Liver microsome. Nature of the data set: Drug metabolism in rat liver microsomes assessed as 1-(4-(4-fluoro-2-methyl-1H-indol-5-yloxy)-5-methylpyrrolo[1,2-f][1,2,4]triazin-6-yloxy)propan-2-one formation at 2 uM after 60 mins by LC/MS method in presence of 1 mM NADPH. Format: ADME.
Data set [5] can be described thus: Drug metabolism in monkey liver microsomes assessed as 1-(4-(4-fluoro-2-methyl-1H-indol-5-yloxy)-5-methylpyrrolo[1,2-f][1,2,4]triazin-6-yloxy)propan-2-one formation at 2 uM after 60 mins by LC/MS method in presence of 1 mM NADPH. The format is ADME, Macaca mulatta. To be noted: rhesus monkey.
The subject of data set [6] is Liver microsome. Description: Drug metabolism in human liver microsomes assessed as 1-(4-(4-fluoro-2-methyl-1H-indol-5-yloxy)-5-methylpyrrolo[1,2-f][1,2,4]triazin-6-yloxy)propan-2-one formation at 2 uM after 60 mins by LC/MS method in presence of 1 mM NADPH. Format: ADME.
For data set [7], the system named is Liver microsome. Description: Drug metabolism in rat liver microsomes assessed as 1-(4-(4-fluoro-2-methyl-1H-indol-5-yloxy)-5-methylpyrrolo[1,2-f][1,2,4]triazin-6-yloxy)propan-2-one formation at 2 uM after 60 mins by LC/MS method in absence of NADPH. The format is ADME.
A short description of data set [8]: Drug metabolism in monkey liver microsomes assessed as 1-(4-(4-fluoro-2-methyl-1H-indol-5-yloxy)-5-methylpyrrolo[1,2-f][1,2,4]triazin-6-yloxy)propan-2-one formation at 2 uM after 60 mins by LC/MS method in absence of NADPH. Conditions: rhesus monkey. The format is ADME, Macaca mulatta.
In data set [9] the test system is Liver microsome. Description: Drug metabolism in human liver microsomes assessed as 1-(4-(4-fluoro-2-methyl-1H-indol-5-yloxy)-5-methylpyrrolo[1,2-f][1,2,4]triazin-6-yloxy)propan-2-one formation at 2 uM after 60 mins by LC/MS method in absence of NADPH. Format: ADME.
The nature of data set [10]: Drug metabolism in monkey liver microsomes assessed as (R)-1-(4-(4-fluoro-2-methyl-1H-indol-5-yloxy)-5-methylpyrrolo[1,2-f][1,2,4]triazin-6-yloxy)propan-2-ol formation at 10 uM after 60 mins by LC/MS analysis in absence of NADPH. The format is ADME, Macaca mulatta. To be noted: rhesus monkey.
For data set [11], the system named is Liver microsome. Nature of the data set: Drug metabolism in human liver microsomes assessed as (R)-1-(4-(4-fluoro-2-methyl-1H-indol-5-yloxy)-5-methylpyrrolo[1,2-f][1,2,4]triazin-6-yloxy)propan-2-ol formation at 10 uM after 60 mins by LC/MS analysis in absence of NADPH. The format is ADME.
In data set [12] the test system is Liver microsome. Description: Drug metabolism in rat liver microsomes assessed as (R)-1-(4-(4-fluoro-2-methyl-1H-indol-5-yloxy)-5-methylpyrrolo[1,2-f][1,2,4]triazin-6-yloxy)propan-2-ol formation at 10 uM after 60 mins by LC/MS analysis in absence of NADPH. Format: ADME.
Data set [13] has as its system Liver cytosol. Description: Drug metabolism in human liver cytosol assessed as sulfate metabolite formation by Michaelis-Menten equation […]. Format: ADME.
Data set [14] relates to HUVEC. Nature of the data set: Inhibition of VEGF-stimulated HUVEC cell proliferation assessed as 5-bromo-2-deoxyuridine incorporation. The format is functional, cell-based. Conditions: Homo sapiens.
Data set [15] deals with HUVEC. Description: Inhibition of FGF-stimulated HUVEC cell proliferation assessed as 5-bromo-2-deoxyuridine incorporation. To be noted: Homo sapiens. The format is functional, cell-based.
The subject of data set [16] is HUVEC. Nature of the data set: Inhibition of VEGF/FGF-stimulated HUVEC cell proliferation assessed as 5-bromo-2-deoxyuridine incorporation. The format is functional, cell-based. To be noted: Homo sapiens.
The subject of data set [17] is Liver cytosol. Nature of the data set: Drug metabolism in rat liver cytosol assessed as sulfate metabolite formation by Michaelis-Menten equation […]. Format: ADME.
Data set [18] is described as follows: Drug metabolism in monkey liver cytosol assessed as sulfate metabolite formation by Michaelis-Menten equation […]. Format: ADME, Macaca mulatta. Conditions: rhesus monkey.
Data set [19] can be described thus: Cmax in Sprague-Dawley rat plasma at 60 mg/kg, po administered as single dose via gavage by LC/MS analysis. The format is ADME, organism-based. Also on record: dose 60 mg/kg, route oral.
A short description of data set [20]: Tmax in Sprague-Dawley rat plasma at 60 mg/kg, po administered as single dose via gavage by LC/MS analysis. Also on record: dose 60 mg/kg, route oral. The format is ADME, organism-based.
A short description of data set [21]: AUC (0 to t) in Sprague-Dawley rat plasma at 60 mg/kg, po administered as single dose via gavage by LC/MS analysis. Format: ADME, organism-based. On the set-up: dose 60 mg/kg, route oral.
Data set [22] in a line: Cmax in cynomolgus monkey plasma at 10 mg/kg, po administered as single dose via gavage by LC/MS analysis. The format is ADME, organism-based, Macaca fascicularis. On the set-up: dose 10 mg/kg, route oral.
The nature of data set [23]: Tmax in cynomolgus monkey plasma at 10 mg/kg, po administered as single dose via gavage by LC/MS analysis. The format is ADME, organism-based, Macaca fascicularis. Also on record: dose 10 mg/kg, route oral.
Data set [24] can be described thus: AUC (0 to t) in cynomolgus monkey plasma at 10 mg/kg, po administered as single dose via gavage by LC/MS analysis. Format: ADME, organism-based, Macaca fascicularis. Also on record: dose 10 mg/kg, route oral.
Data set [25] is described as follows: Cmax in healthy human plasma at 400 mg, po administered as single dose via gavage by LC/MS analysis. Also on record: dose 400 mg, route oral. The format is ADME, organism-based.
Data set [26] can be described thus: Tmax in healthy human plasma at 400 mg, po administered as single dose via gavage by LC/MS analysis. The format is ADME, organism-based.
The nature of data set [27]: AUC (0 to t) in healthy human plasma at 400 mg, po administered as single dose via gavage by LC/MS analysis. The format is ADME, organism-based.

The structures appear in SMILES notation.

Regarding `CC(=O)COc1cn2ncnc(Oc3ccc4[nH]c(C)cc4c3F)c2c1C`, the Drug metabolism result (in the data set on Liver microsome [1]; in [2]; in the data set on Liver microsome [3]) was “metabolite_detected” throughout.
On to `Cc1cc2c(F)c(Oc3n[14cH]nn4cc(OC[C@@H](C)OC(=O)[C@H](C)N)c(C)c34)ccc2[nH]1`, for which the Drug metabolism result in the data set on Liver microsome [4] is recorded as “metabolite_detected”; in data set [5], “metabolite_detected”; with Liver microsome [6] it was “metabolite_detected”; with Liver microsome [7], “metabolite_not_detected”; in [8], “metabolite_not_detected”; in the data set with Liver microsome [9], “metabolite_not_detected”.
As for `Cc1c(OC[C@@H](C)O)cn2ncnc(Oc3ccc4[nH]c(C(=O)O)cc4c3F)c12`, the Drug metabolism entry (in the data set on Liver microsome [1]; in data set [2]; with Liver microsome [3]) was “metabolite_detected” in each case.
On to `Cc1c(OC[C@@H](C)O)cn2ncnc(Oc3ccc4[nH]c(CO)cc4c3F)c12`, for which the Drug metabolism entry (in the data set with Liver microsome [1]; in data set [2]; in the data set on Liver microsome [3]) was “metabolite_detected” in each case.
`Cc1cc2c(F)c(Oc3ncnn4cc(OC[C@H](C)O)c(C)c34)ccc2[nH]1`: the Drug metabolism entry (in [10]; in the data set with Liver microsome [11]; with Liver microsome [12]) was “metabolite_not_detected” throughout. The Km (with Liver cytosol [13]; with Liver cytosol [17]; in data set [18]) was 0.7 µM throughout. Besides, the IC50 in the data set with HUVEC [14] came to 0.687 µM; with HUVEC [15] it was 1.01 µM; with HUVEC [16], 0.807 µM.
As for `Cc1cc2c(F)c(Oc3ncnn4cc(OC[C@@H](C)O)c(C)c34)ccc2[nH]1` [BRIVANIB], the Cmax in data set [19] came out at 3500 ng/mL; in data set [22], 1400 ng/mL; in [25], 3500 ng/mL. Moreover, the values for the Tmax in [20], in data set [23] and in data set [26] were 1 h, 1 h and 2 h, respectively. For the same compound, the AUC(0-t) in data set [21] came to 7600 ng·h/mL; in data set [24], 6800 ng·h/mL; in data set [27] it was 21800 ng·h/mL. The Km (with Liver cytosol [13]; in the data set on Liver cytosol [17]; in data set [18]) was 0.7 µM throughout. For the same compound, the IC50 came to 0.618 µM in the data set with HUVEC [14], 0.695 µM with HUVEC [15] and 0.841 µM with HUVEC [16].

Usually Km stands for the concentration of substrate that gives half-maximal velocity. What is called IC50 is the midpoint of a concentration-inhibition curve. The Cmax is the maximum level reached in the sampled fluid or tissue. As a reminder, the Tmax is the time from dosing to the highest level. In general, AUC(0-t) refers to the area under the concentration-time curve up to a stated or last time point.
